Test results taken from paper PMC3382171 (PLoS ONE, 2012).

Key:
Test in all cases: biochemical
CAMKKB = biological target: T1, CAMKKB (Homo sapiens, UniProt Q96RR4); conditions: read-out: Dundee KSS % inhibition at 1uM
T1 construct: gene CAMKK2
Procedure: (§1) The METi and RAFi were screened against kinase panels (SelectScreen, Invitrogen; University of Dundee, Division of Signal Transduction Therapy, UK; Upstate Biotechnology/Millipore, Billerica, MA). In these selectivity assays the concentration of ATP was set to the Km value of ATP for each kinase tested to allow for a relative potency comparison between the various kinases. The compounds were tested at 1 µM final concentration. […] (A) Kinase selectivity screen (KSS) performed at Upstate Biotechnology. […] (B) KSS performed at University of Dundee (Division of Signal Transduction Therapy). […] (PDF) Click here for additional data file.

JNK3 = biological target: T2, JNK3 (Homo sapiens, UniProt P53779); conditions: read-out: Dundee KSS % inhibition at 1uM
T2 construct: gene MAPK10
T2 sequence (P53779 whole entry): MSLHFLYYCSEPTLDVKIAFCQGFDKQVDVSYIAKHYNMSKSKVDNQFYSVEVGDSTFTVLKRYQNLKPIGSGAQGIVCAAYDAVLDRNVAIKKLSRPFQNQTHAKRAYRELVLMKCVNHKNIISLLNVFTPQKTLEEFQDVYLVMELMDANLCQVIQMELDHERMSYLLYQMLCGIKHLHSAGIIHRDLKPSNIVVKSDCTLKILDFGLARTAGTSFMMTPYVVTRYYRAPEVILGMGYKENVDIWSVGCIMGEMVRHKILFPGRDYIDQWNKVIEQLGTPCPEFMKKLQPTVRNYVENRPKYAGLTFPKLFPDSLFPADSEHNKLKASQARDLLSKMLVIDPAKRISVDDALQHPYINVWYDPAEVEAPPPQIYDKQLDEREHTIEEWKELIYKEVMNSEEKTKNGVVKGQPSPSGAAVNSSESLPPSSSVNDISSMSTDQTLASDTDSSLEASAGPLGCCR
Procedure: as §1

mouse LCK = mouse LCK (Mus musculus, UniProt P06240); conditions: read-out: Dundee KSS % inhibition at 1uM
Procedure: as §1

deltaPH-PKBbeta = biological target: T3, deltaPH-PKBbeta (Homo sapiens, UniProt P31751); conditions: read-out: Dundee KSS % inhibition at 1uM
T3 construct: gene AKT2; delta PH
T3 sequence (P31751 whole entry): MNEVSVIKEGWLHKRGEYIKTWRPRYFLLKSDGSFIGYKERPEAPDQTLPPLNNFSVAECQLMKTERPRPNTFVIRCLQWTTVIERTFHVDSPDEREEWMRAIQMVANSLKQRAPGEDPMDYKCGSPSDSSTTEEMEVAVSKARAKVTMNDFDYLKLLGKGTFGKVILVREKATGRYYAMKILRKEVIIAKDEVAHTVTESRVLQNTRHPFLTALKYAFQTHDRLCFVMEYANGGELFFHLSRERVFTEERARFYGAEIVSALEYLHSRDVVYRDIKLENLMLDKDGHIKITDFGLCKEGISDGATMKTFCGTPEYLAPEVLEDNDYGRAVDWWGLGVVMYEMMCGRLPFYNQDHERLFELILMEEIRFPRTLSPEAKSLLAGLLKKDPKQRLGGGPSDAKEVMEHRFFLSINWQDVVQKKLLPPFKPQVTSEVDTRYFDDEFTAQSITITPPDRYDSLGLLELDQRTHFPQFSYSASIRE
Procedure: as §1

ERK8 = biological target: T4, ERK8 (Homo sapiens, UniProt Q8TD08); conditions: read-out: Dundee KSS % inhibition at 1uM
T4 construct: gene MAPK15
T4 sequence (Q8TD08 whole entry): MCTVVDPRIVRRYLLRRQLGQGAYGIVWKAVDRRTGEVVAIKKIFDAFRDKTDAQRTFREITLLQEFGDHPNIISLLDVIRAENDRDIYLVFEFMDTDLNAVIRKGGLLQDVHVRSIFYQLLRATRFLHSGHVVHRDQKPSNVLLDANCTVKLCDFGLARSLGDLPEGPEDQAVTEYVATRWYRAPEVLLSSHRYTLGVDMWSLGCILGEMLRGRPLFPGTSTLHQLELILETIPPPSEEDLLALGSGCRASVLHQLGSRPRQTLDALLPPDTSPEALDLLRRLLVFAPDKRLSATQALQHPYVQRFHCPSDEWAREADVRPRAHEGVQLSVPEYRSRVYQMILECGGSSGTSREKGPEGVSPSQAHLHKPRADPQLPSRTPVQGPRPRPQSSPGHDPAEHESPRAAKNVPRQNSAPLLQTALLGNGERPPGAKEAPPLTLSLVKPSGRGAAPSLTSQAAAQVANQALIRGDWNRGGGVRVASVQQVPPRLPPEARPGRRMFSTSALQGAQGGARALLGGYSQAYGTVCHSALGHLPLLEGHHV
Procedure: as §1

IKKbeta = biological target: T5, IKKbeta (Homo sapiens, UniProt O14920); conditions: read-out: Dundee KSS % inhibition at 1uM
T5 construct: gene IKBKB
T5 sequence (O14920 whole entry): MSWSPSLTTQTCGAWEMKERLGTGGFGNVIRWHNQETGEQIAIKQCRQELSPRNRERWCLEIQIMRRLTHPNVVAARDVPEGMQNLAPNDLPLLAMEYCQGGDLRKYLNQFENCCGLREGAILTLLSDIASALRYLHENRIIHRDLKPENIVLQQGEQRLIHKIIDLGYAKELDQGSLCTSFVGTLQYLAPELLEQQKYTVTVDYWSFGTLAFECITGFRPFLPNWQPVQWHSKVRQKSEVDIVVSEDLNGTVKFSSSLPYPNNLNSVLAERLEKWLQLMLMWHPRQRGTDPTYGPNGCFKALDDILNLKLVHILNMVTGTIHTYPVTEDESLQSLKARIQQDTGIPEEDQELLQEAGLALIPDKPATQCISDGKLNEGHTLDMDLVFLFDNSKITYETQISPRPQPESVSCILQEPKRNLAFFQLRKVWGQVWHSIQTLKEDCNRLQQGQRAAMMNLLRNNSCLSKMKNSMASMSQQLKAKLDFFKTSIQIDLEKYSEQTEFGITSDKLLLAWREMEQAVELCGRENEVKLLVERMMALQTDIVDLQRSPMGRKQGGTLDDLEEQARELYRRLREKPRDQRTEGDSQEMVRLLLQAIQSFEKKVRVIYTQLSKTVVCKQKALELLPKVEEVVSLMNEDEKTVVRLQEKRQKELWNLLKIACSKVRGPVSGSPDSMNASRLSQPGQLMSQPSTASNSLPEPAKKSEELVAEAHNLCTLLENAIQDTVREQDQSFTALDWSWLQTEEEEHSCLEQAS
Procedure: as §1

NEK2a = biological target: T6, NEK2a (Homo sapiens, UniProt P51955); conditions: read-out: Dundee KSS % inhibition at 1uM
T6 construct: gene NEK2; isoform A
Procedure: as §1

MAPK1/ERK2 = MAPK1/ERK2 (Homo sapiens, UniProt P28482); conditions: read-out: Dundee KSS % inhibition at 1uM
Procedure: as §1

PKCalpha = biological target: T7, PKCalpha (Homo sapiens, UniProt P17252); conditions: read-out: Dundee KSS % inhibition at 1uM
T7 construct: gene PRKCA
Procedure: as §1

PBK = PBK (Homo sapiens, UniProt Q96KB5); conditions: read-out: Dundee KSS % inhibition at 1uM
Procedure: as §1

MAPKAP-K1a = biological target: T8, MAPKAP-K1a (Homo sapiens, UniProt Q15418); conditions: read-out: Dundee KSS % inhibition at 1uM
T8 construct: gene RPS6KA1
Procedure: as §1

chicken SRC = chicken SRC (Gallus gallus, UniProt P00523); conditions: read-out: Dundee KSS % inhibition at 1uM
Procedure: as §1

AuroraB = biological target: T9, AuroraB (Homo sapiens, UniProt Q96GD4); conditions: read-out: Dundee KSS % inhibition at 1uM
T9 construct: gene AURKB
T9 sequence (Q96GD4 whole entry): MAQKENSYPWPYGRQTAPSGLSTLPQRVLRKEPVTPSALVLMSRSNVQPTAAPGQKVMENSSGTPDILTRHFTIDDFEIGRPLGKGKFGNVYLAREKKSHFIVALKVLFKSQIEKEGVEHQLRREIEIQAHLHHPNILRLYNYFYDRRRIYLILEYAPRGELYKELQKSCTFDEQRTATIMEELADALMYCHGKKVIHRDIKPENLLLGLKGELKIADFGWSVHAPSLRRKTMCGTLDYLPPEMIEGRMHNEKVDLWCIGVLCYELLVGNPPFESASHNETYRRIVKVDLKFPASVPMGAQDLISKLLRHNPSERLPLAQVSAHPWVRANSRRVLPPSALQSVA
Procedure: as §1

IGF1R = IGF1R (Homo sapiens, UniProt P08069); conditions: read-out: Upstate KSS % inhibition at 1uM
Procedure: as §1

deltaPH-PKBalpha = biological target: T10, deltaPH-PKBalpha (Homo sapiens, UniProt P31749); conditions: read-out: Dundee KSS % inhibition at 1uM
T10 construct: gene AKT1; delta PH
Procedure: as §1

PRK2 = biological target: T11, PRK2 (Homo sapiens, UniProt Q16513); conditions: read-out: Dundee KSS % inhibition at 1uM
T11 construct: gene PKN2
Procedure: as §1

MARK3 = MARK3 (Homo sapiens, UniProt P27448); conditions: read-out: Dundee KSS % inhibition at 1uM
Procedure: as §1

MAPKAP-K1b = biological target: T12, MAPKAP-K1b (Homo sapiens, UniProt P51812); conditions: read-out: Dundee KSS % inhibition at 1uM
T12 construct: gene RPS6KA3
Procedure: as §1

SAPK2A/p38 = biological target: T13, SAPK2A/p38 (Homo sapiens, UniProt Q16539); conditions: read-out: Dundee KSS % inhibition at 1uM
T13 construct: gene MAPK14
Procedure: as §1

PKD1 = biological target: T14, PKD1 (Homo sapiens, UniProt Q15139); conditions: read-out: Dundee KSS % inhibition at 1uM
T14 construct: gene PRKD1
Procedure: as §1

CAMKKa = biological target: T15, CAMKKa (Homo sapiens, UniProt Q8N5S9); conditions: read-out: Dundee KSS % inhibition at 1uM
T15 construct: gene CAMKK1
T15 sequence (Q8N5S9 whole entry): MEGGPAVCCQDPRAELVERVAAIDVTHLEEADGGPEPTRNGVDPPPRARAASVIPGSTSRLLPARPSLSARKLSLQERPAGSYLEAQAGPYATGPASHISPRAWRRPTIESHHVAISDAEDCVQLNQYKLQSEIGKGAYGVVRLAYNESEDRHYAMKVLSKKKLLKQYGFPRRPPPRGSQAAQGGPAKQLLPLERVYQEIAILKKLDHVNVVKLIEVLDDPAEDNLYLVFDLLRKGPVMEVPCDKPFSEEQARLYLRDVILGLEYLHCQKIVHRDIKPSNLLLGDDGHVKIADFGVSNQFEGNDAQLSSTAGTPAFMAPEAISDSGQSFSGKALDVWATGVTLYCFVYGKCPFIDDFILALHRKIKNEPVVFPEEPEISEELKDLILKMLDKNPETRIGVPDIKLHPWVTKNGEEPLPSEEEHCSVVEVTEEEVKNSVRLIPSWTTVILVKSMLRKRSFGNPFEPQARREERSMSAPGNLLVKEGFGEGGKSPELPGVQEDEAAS
Procedure: as §1

SGK = biological target: T16, SGK (Homo sapiens, UniProt O00141); conditions: read-out: Dundee KSS % inhibition at 1uM
T16 construct: gene SGK1
Procedure: as §1

CHK1 = biological target: T17, CHK1 (Homo sapiens, UniProt O14757); conditions: read-out: Dundee KSS % inhibition at 1uM
T17 construct: gene CHEK1
Procedure: as §1

DYRK3 = DYRK3 (Homo sapiens, UniProt O43781); conditions: read-out: Dundee KSS % inhibition at 1uM
Procedure: as §1

MSK1 = biological target: T18, MSK1 (Homo sapiens, UniProt O75582); conditions: read-out: Dundee KSS % inhibition at 1uM
T18 construct: gene RPS6KA5
Procedure: as §1

AuroraC = biological target: T19, AuroraC (Homo sapiens, UniProt Q9UQB9); conditions: read-out: Dundee KSS % inhibition at 1uM
T19 construct: gene AURKC
Procedure: as §1

CDK2/CyclinA = CDK2/CyclinA (Homo sapiens, UniProt P24941); conditions: read-out: Dundee KSS % inhibition at 1uM
Procedure: as §1

MKK1 = biological target: T20, MKK1 (Homo sapiens, UniProt Q02750); conditions: read-out: Dundee KSS % inhibition at 1uM
T20 construct: gene MAP2K1
Procedure: as §1

CSK = CSK (Homo sapiens, UniProt P41240); conditions: read-out: Dundee KSS % inhibition at 1uM
Chain of CSK (P41240 whole entry): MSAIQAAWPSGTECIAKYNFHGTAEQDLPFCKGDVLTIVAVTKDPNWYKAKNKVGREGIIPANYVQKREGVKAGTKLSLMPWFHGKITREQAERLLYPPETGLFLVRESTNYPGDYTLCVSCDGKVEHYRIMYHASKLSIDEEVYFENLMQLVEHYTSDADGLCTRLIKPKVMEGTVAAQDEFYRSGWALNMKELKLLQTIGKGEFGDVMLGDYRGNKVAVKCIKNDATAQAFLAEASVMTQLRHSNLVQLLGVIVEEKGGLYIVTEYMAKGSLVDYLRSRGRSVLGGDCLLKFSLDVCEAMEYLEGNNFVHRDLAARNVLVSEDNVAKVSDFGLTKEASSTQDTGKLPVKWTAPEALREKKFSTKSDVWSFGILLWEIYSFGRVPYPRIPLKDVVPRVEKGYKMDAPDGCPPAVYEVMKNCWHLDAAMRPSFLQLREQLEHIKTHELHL
Procedure: as §1

SAPK3/p38g = biological target: T21, SAPK3/p38g (Homo sapiens, UniProt P53778); conditions: read-out: Dundee KSS % inhibition at 1uM
T21 construct: gene MAPK12
T21 sequence (P53778 whole entry): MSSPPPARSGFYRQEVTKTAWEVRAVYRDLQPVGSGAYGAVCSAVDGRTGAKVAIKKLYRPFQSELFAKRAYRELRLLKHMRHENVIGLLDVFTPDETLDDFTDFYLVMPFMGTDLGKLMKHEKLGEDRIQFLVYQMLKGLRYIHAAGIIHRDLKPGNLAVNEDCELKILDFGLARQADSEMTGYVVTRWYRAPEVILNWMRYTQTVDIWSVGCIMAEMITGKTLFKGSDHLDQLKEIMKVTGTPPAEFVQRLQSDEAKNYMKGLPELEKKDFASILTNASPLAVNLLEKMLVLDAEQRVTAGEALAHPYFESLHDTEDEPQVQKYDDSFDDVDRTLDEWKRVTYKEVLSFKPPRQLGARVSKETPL
Procedure: as §1

PIM3 = PIM3 (Homo sapiens, UniProt Q86V86); conditions: read-out: Dundee KSS % inhibition at 1uM
Procedure: as §1

Compound: OCCn1cc(-c2cnc3nnn(Cc4ccc5ncccc5c4)c3n2)cn1 [METi, PF-04217903]
- inhibition at 1 µM (CAMKKB): 16.2%
- inhibition at 1 µM (JNK3): -2.36%
- inhibition at 1 µM (mouse LCK): 15.7%
- inhibition at 1 µM (deltaPH-PKBbeta): 8.16%
- inhibition at 1 µM (ERK8): 14.8%
- inhibition at 1 µM (IKKbeta): 22.5%
- inhibition at 1 µM (NEK2a): -7.91%
- inhibition at 1 µM (MAPK1/ERK2): -13%
- inhibition at 1 µM (PKCalpha): 14.3%
- inhibition at 1 µM (PBK): 5.14%
- inhibition at 1 µM (MAPKAP-K1a): 3.34%
- inhibition at 1 µM (chicken SRC): -11.5%
- inhibition at 1 µM (AuroraB): 11.2%
- inhibition at 1 µM (IGF1R): 103%
- inhibition at 1 µM (deltaPH-PKBalpha): 3.5%
- inhibition at 1 µM (PRK2): 11.7%
- inhibition at 1 µM (MARK3): 4.4%
- inhibition at 1 µM (MAPKAP-K1b): 24.9%
- inhibition at 1 µM (SAPK2A/p38): 2.86%
- inhibition at 1 µM (PKD1): 6.21%
- inhibition at 1 µM (CAMKKa): 8.9%
- inhibition at 1 µM (SGK): 29.4%
- inhibition at 1 µM (CHK1): -1.96%
- inhibition at 1 µM (DYRK3): -18.2%
- inhibition at 1 µM (MSK1): 5.55%
- inhibition at 1 µM (AuroraC): 6.48%
- inhibition at 1 µM (CDK2/CyclinA): 2.24%
- inhibition at 1 µM (MKK1): 25.2%
- inhibition at 1 µM (CSK): 5.77%
- inhibition at 1 µM (SAPK3/p38g): 3.7%
- inhibition at 1 µM (PIM3): 10.7%
